Assay results taken from patent publication US20050282818A1, “Ubiquitin ligase inhibitors” (Rigel Pharmaceuticals, Inc., priority 2004, published 2005).
Where two headings read alike, the source gives them in different places.

Columns and labels:
A549 cells = assay: Cell proliferation PAD assay, A549; assay type: cell-based; details: Homo sapiens, 48 hours
Description: (§1) Cell lines used are available from American Type Culture Collection (ATCC), for example, cell cultures containing A549 (ATCC# CCL-185), HeLa (ATCC# CCL-2), HCT116 ATTC# CCL-247), and H1299 (ATCC# CRL-5803) cells were maintained in T175 flasks following the ATCC recommended media and handling procedures. […] A 20,000 cells/ml solution was made for plating. Cells were plated in black Packard 96 well plates by placing 100 μl per well (2,000 cells per well). […] The definitions of the cell types used are as follows: A549 is lung carcinoma; HI 299 is non-small cell lung carcinoma; HI 155 is non-small cell lung carcinoma; AsPC-1 is pancreatic adenocarcinoma; Caov-3 is ovarian adenocarcinoma; COLO 205 is colorectal adenocarcinoma; DLD-1 colorectal adenocarcinoma; HCT116 is colorectal carcinoma; DU 145 is prostate carcinoma; ES-2 is ovarian clear cell carcinoma; H460 is large cell lung carcinoma; HELA is cervical adenocarcinoma; MIA PaCa-2 is pancreatice carcinoma; OVCAR-3 is ovarian adenocarcinoma; OVCAR8 is ovarian carcinoma; PC3 is prostate adenocarcinoma; SK-OV-3 is ovarian adenocarcinoma; SU86.86 is pancreatic carcinoma; TOV-21G is avarian clear cell carcinoma; U2OS is bone osteosarcoma; is ASPC-I is pancreatic adenocarcinoma; BXPC-3 is pabcreatic adenocarcinoma; HL60 is promyeloblast promyelocytic leukemia; K562 is bone marrow chronic myelogenous leukemia; L1210 is mouse lymphocytic leukemia; MOLT3 is T lymphoblast acute lymphoblastic leukemia; MOLT4 is T lymphoblast acute lymphoblastic leukemia; SW620 is colorectal adenocarcinoma; THP-1 is monocyte acute monocytic leukemia; U937 is histiocytic lymphoma; and UACC-257 is melanoma.
(§2) Compounds and additional media were added 24 hours after cell plating. […] All compound testing was done in duplicate using 6.3 fold dilutions starting with 10 mM. […] Taxol and at least one additional control were run on all plates. Three microliters of the compound master plate were added to deep well blocks containing 750 μl of RPMI media. One hundred microliters were transferred from the compound/media deep well blocks to the plated cells resulting in a 500 fold dilution of the compounds. Cells were grown at 37° C., 5% CO2 for 48 hours.
(§3) Cells to be analyzed by photography were fixed and stained. One hundred microliters of media were removed and 100 μl of 9.3% formamide was added to each well. Plates were left on the benchtop for 45 minutes. A staining solution containing 1.55 μl of 1 mg/ml DAPI added to 18.75 ml PBS was warmed for 15 minutes at 37° C. The cells were aspirated prior to washing with 100 μl of PBS. Seventy microliters of PBS were aspirated and 170 μl of the DAPI solution were added to each well of fixed cells. Plates were left at room temperature for one hour then aspirated and washed twice with 100 μl of PBS. The stained cells were left at 4° C. for a minimum of 16 hours before photographic analysis with Array Scan II (Cellomics). Analysis of the photographic images to determine numbers of live cells (proliferation), apoptotic cells and dead cells, were according to the methods described in U.S. Utility patent application Ser. No. 10/652,440, which incorporated herein in its entirety.

TRAF6/Uev1A/Ubc13 = biological target: T1, TRAF6/Uev1A/Ubc13 (Homo sapiens, UniProt Q9Y4K3); assay: TRAF6/Uev1A/Ubc13 plate-based ubiquitin ligase assay; assay type: biochemical
T1 sequence (Q9Y4K3 1-522): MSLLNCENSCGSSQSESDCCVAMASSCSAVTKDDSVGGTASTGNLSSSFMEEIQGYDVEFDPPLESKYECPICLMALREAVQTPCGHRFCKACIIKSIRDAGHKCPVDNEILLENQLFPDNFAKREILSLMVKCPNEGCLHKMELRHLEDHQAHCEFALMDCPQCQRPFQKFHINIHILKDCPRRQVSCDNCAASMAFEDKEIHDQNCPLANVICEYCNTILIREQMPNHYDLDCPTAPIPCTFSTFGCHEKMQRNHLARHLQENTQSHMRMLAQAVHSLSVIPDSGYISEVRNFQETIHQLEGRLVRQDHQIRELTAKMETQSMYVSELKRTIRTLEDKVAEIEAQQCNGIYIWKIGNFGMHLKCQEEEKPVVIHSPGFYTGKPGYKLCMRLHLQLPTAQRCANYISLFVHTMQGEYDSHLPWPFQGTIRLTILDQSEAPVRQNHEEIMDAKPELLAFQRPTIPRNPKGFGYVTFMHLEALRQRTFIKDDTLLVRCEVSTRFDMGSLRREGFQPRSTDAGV
Description: For the assays described below, the TRAF6/Uev1A/UBC13 assay is the biochemical plate-based assay of TRAF6 ligase activity using Ubc13 as the E2 enzyme. The gel-based assay is the biochemical solution-based TRAF6 ligase assay (by SDS-PAGE and Western blot) to confirm the plate-based ELISA assay. The APC assay is an assay which is another E3 ligase (APC2/APC11) biochemical assay.
A 96-well Ni-plate was blocked with 100 μl of 1% casein in PBS for 1 hour at room temperature. The plates were then washed three times with 200 μl of 1×PBS and 80 μl of a reaction buffer was added per well which contained 50 ng of Flag-ubiquitin, 50 ng of His-ubiquitin, 62.5 mM Tris pH 7.5, 6.25 mM MgCl2, 1.0 mM DTT, and 2 μM ATP. To each well was added 10 μl of a solution of the compound in DMSO. The reaction was started by adding 10 μl of a solution consisting of 10 ng human E1, 25 ng each of Uev1a and Ubc13, and 100 ng TRAF6 in the reaction buffer. The plates were shaken for 10 minutes and incubate at room temperature for 1 hour. After the incubation, the plates were washed three times with 200 μl 1×PBS in 0.05% Tween and 100 μl of an antibody mix consisting of anti-Flag (1:30,000 dilution; Sigma F-3165) and anti-Mouse IgG-HRP (1/150,000 dilution; Jackson Immunoresearch #115-035-146) in 1×PBS with 0.25% BSA. The plates were then incubated for another 1 hour at room temperature, and after incubation the plate was washed three times with 200 μl 1×PBS with 0.05% Tween. The amount of ubiquitin was measured by adding 100 μl of Lumino substrate (1:5 dilution) and reading the luminescence with a fluorimeter.
Table 2 below illustrates the inhibitory activity of the compounds of the invention determined by the TRAF6/Uev1A/Ubc13 assay as well as in the ICAM, APC and the ROC1/CUL1 Ubiquitin Ligase Assay (SCF Assay). The IC50 values were determined using a various concentrations of the compounds.

H1299 cells = assay: Cell proliferation PAD assay, H1299; assay type: cell-based; details: Homo sapiens, NCI-H1299, 3pt, 48 hours, read-out: H1299 3pt
Description: as §1, §2, §3

IC50 (A549 cells; 3pt, read-out: A549 3pt) | IC50 (TRAF6/Uev1A/Ubc13) | IC50 (H1299 cells) | IC50 (A549 cells; 6pt, read-out: A549 6pt) | SMILES
≥ 20 µM | ≥ 20 µM | – | – | COC(=O)c1ccc(NS(=O)(=O)c2ccc(Cl)c3nonc23)cc1 [compound 8, Methyl 4-{[(7-chloro-2,1,3-benzoxadiazol-4-yl)sulfonyl]amino}benzoate]
≥ 20 µM | – | ≥ 20 µM | – | O=S(=O)(Nc1ccc(F)c(Cl)c1)c1cccc2nonc12 [compound 14, N-(3-chloro-4-fluorophenyl)-2,1,3-benzoxadiazole-4-sulfonamide]
≥ 20 µM | – | 1 to 20 µM | – | O=S(=O)(Nc1c(F)cccc1F)c1cccc2nonc12 [compound 15, N-(2,6-difluorophenyl)-2,1,3-benzoxadiazole-4-sulfonamide]
≥ 20 µM | – | ≥ 20 µM | – | Cc1cc(NS(=O)(=O)c2cccc3nonc23)ccc1I [compound 18, N-(4-iodo-3-methylphenyl)-2,1,3-benzoxadiazole-4-sulfonamide]
≥ 20 µM | – | 1 to 20 µM | – | Cc1ccc(C)c(NS(=O)(=O)c2cccc3nonc23)c1 [compound 21, N-(2,5-dimethylphenyl)-2,1,3-benzoxadiazole-4-sulfonamide]
≥ 20 µM | – | ≥ 20 µM | – | O=S(=O)(Nc1cccc(F)c1)c1cccc2nonc12 [compound 22, N-(3-fluorophenyl)-2,1,3-benzoxadiazole-4-sulfonamide]
≥ 20 µM | – | ≥ 20 µM | – | O=S(=O)(Nc1ccc(F)c(F)c1)c1cccc2nonc12 [compound 23, N-(3,4-difluorophenyl)-2,1,3-benzoxadiazole-4-sulfonamide]
1 to 20 µM | – | 1 to 20 µM | – | Cc1cc2cc(NS(=O)(=O)c3cccc4nonc34)ccc2[nH]1 [compound 24, N-(2-methyl-1H-indol-5-yl)-2,1,3-benzoxadiazole-4-sulfonamide]
1 to 20 µM | – | ≥ 20 µM | – | O=S(=O)(Nc1cccc(Cl)c1)c1cccc2nonc12 [compound 43, N-(3-chlorophenyl)-2,1,3-benzoxadiazole-4-sulfonamide]
≥ 20 µM | – | ≥ 20 µM | – | COc1ccc(NS(=O)(=O)c2cccc3nonc23)cc1 [compound 51, N-(4-methoxyphenyl)-2,1,3-benzoxadiazole-4-sulfonamide]
– | ≥ 20 µM | – | – | COC(=O)c1ccc(NS(=O)(=O)c2ccc(Sc3ccc4ccccc4n3)c3nonc23)cc1 [compound 316, Methyl 4-({[7-(quinolin-2-ylthio)-2,1,3-benzoxadiazol-4-yl]sulfonyl}amino)benzoate]

Second part, the compound before the results:

SMILES | IC50 (A549 cells; 3pt, read-out: A549 3pt) | IC50 (TRAF6/Uev1A/Ubc13) | IC50 (H1299 cells) | IC50 (A549 cells; 6pt, read-out: A549 6pt)
O=S(=O)(Nc1c(F)cc(F)cc1F)c1cccc2nonc12 [compound 16, N-(2,4,6-trifluorophenyl)-2,1,3-benzoxadiazole-4-sulfonamide] | ≥ 20 µM | – | ≥ 20 µM | –
Cc1cc(F)ccc1NS(=O)(=O)c1cccc2nonc12 [compound 19, N-(4-fluoro-2-methylphenyl)-2,1,3-benzoxadiazole-4-sulfonamide] | ≥ 20 µM | – | ≥ 20 µM | –
O=S(=O)(Nc1cc(F)ccc1F)c1cccc2nonc12 [compound 27, N-(2,5-difluorophenyl)-2,1,3-benzoxadiazole-4-sulfonamide] | ≥ 20 µM | – | ≥ 20 µM | –
O=S(=O)(NCc1ccccn1)c1cccc2nonc12 [compound 49, N-(pyridin-2-ylmethyl)-2,1,3-benzoxadiazole-4-sulfonamide] | ≥ 20 µM | – | ≥ 20 µM | –
COCCNS(=O)(=O)c1cccc2nonc12 [compound 50, N-(2-methoxyethyl)-2,1,3-benzoxadiazole-4-sulfonamide] | ≥ 20 µM | – | ≥ 20 µM | –
O=[N+]([O-])c1c(N2CCCCC2)cc(N2CCC3(CC2)OCc2ccccc23)c2nonc12 [compound 300, 1′-(7-nitro-6-piperidin-1-yl-2,1,3-benzoxadiazol-4-yl)-3H-spiro[2-benzofuran-1,4′-piperidine]] | – | ≥ 20 µM | – | –
O=[N+]([O-])c1c(N2CCCCC2)cc(N2CCC(O)(c3ccccc3)CC2)c2nonc12 [compound 301, 1-(7-nitro-6-piperidin-1-yl-2,1,3-benzoxadiazol-4-yl)-4-phenylpiperidin-4-ol] | – | ≥ 20 µM | – | –
O=C1OC2(CCN(c3ccc([N+](=O)[O-])c4nonc34)CC2)c2ccccc21 [compound 302, 1′-(7-nitro-2,1,3-benzoxadiazol-4-yl)-3H-spiro[2-benzofuran-1,4′-piperidin]-3-one] | – | 1 to 20 µM | – | –
CCN(CC)c1cc(N2CCC3(CC2)OC(=O)c2ccccc23)c2nonc2c1[N+](=O)[O-] [compound 303, 1′-[6-(diethylamino)-7-nitro-2,1,3-benzoxadiazol-4-yl]-3H-spiro[2-benzofuran-1,4′-piperidin]-3-one] | – | ≥ 20 µM | – | –
O=C1OC2(CCN(c3cc(N4CCCCC4)c([N+](=O)[O-])c4nonc34)CC2)c2ccccc21 [compound 304, 1′-(7-nitro-6-piperidin-1-yl-2,1,3-benzoxadiazol-4-yl)-3H-spiro[2-benzofuran-1,4′-piperidin]-3-one] | – | ≥ 20 µM | – | –
FC(F)(F)c1cccc(-c2cccc3nonc23)c1 [compound 305, 4-[3-(Trifluoromethyl)phenyl]-2,1,3-benzoxadiazole] | – | ≥ 20 µM | – | –
Cc1cccc(-c2cccc3nonc23)c1 [compound 306, 4-(3-Methylphenyl)-2,1,3-benzoxadiazole] | – | ≥ 20 µM | – | ≥ 20 µM
COc1ccccc1-c1cc(Cl)c2nonc2c1 [compound 330, 4-Chloro-6-(2-methoxyphenyl)-2,1,3-benzoxadiazole] | – | – | – | ≥ 20 µM
O=[N+]([O-])c1cccc(-c2cc(Cl)c3nonc3c2)c1 [compound 331, 4-Chloro-6-(3-nitrophenyl)-2,1,3-benzoxadiazole] | – | – | – | ≥ 20 µM
